Consider 3 molecules from patent publication US20240148888A1, “INTERCELLULAR ADHESION MOLECULE 1 (ICAM1) ANTIBODY DRUG CONJUGATE AND USES THEREOF” (priority 2021, published 2024).

The subject of one assay is MDA-MB-231 cells. The following applies: reported in literature; cited from earlier work.
In the next assay the test system is refractory TNBC. The conditions noted are these: refractory TNBC patients; cited from earlier work.
In another assay the test system is MDA-MB-436 tumors. The assay is described as follows: In vivo efficacy, orthotopic TNBC model, standard setting. The conditions noted are these: 5 mg/kg equivalent dosage.
In assay [1] the target is intercellular adhesion molecule 1 (ICAM1) from Homo sapiens (Homo sapiens) (UniProt P05362). The assay is described as follows: cell-based or functional assay.
intercellular adhesion molecule 1 (ICAM1) from Homo sapiens (Homo sapiens), sequence (P05362 28-532 limits assumed): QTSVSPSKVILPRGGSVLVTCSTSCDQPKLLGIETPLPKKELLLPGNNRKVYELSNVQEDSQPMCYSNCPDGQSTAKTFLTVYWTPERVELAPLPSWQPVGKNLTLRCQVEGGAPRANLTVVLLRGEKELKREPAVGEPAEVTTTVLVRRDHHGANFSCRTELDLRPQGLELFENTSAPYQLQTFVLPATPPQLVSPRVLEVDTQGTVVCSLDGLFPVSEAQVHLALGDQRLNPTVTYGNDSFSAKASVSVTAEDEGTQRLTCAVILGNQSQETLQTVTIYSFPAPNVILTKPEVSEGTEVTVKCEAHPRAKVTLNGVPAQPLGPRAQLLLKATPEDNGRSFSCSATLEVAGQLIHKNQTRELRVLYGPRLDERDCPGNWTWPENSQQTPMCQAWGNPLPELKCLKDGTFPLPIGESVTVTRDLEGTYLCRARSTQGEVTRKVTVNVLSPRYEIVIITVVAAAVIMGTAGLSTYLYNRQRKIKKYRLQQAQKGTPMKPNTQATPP

Experimental for MDA-MB-436 tumors: For the in vivo efficacy studies, orthotopic TNBC tumors (MDA-MB-436 or MDA-MB-231) were established in 6-8 weeks old female nude mice as described above. Tumors were grown to reach 100 mm^3 for standard setting treatment or 500 mm^3 for late-stage treatment. […] Tumor growth was monitored weekly using caliper. At the endpoint, animals were euthanized with CO2 and orthotopic tumors were excised to measure their mass.

Take sacituzumab govitecan: in the assay with MDA-MB-231 cells, the “Resistance of MDA-MB-231 cells” value is on record as “resistant”. In the assay on refractory TNBC, the Median progression-free survival is on record as 5.5 months and the Response rate is roughly 33%.
As to `COc1cccc2c1C(=O)c1c(O)c3c(c(O)c1C2=O)C[C@@](O)(C(=O)CO)C[C@@H]3O[C@H]1C[C@H](N)[C@H](O)[C@H](C)O1` [free Dox, Doxorubicin], the “Anti-tumor efficacy” value in the assay on MDA-MB-436 tumors was “very limited efficacy”.
Consider “Phycoerythrin (PE)-conjugated anti-human ICAM1 antibody (Clone: HCD54)”, for which, in assay [1], the cellular internalization rate in three TNBC cell lines relative to MCF10A cells (imaging flow cytometry) fell in the range of 42 to 109 fold and the cellular internalization rate in three TNBC cell lines relative to non-targeting IgG (imaging flow cytometry) lay in the range of 21 to 129 fold.
